Several values for one entry are separate records, joined by “and”; a condition that tells them apart may be missing. Equal entries are not always repeated.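 Growth conditions: 96-well plates. Treatment: test compound, 48 hours, 5 concentrations. Analysis: linear interpolation between bracketing concentrations; unreached endpoints set to highest concentration. At the GI50, growth is halved. At the TGI there is no net growth.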
Assays:
Assay in all cases: NCI tumour cell line growth inhibition, 48 h
BT-549 breast = tested on: BT-549 breast
HCC-2998 colon = tested on: HCC-2998 colon
SF-295 CNS = tested on: SF-295 CNS
TK-10 renal = tested on: TK-10 renal
LOX IMVI melanoma = tested on: LOX IMVI melanoma
DU-145 prostate = tested on: DU-145 prostate
786-0 renal = tested on: 786-0 renal
UACC-257 melanoma = tested on: UACC-257 melanoma

Row | SMILES | GI50 (BT-549 breast) | TGI (BT-549 breast) | GI50 (HCC-2998 colon) | TGI (HCC-2998 colon) | GI50 (SF-295 CNS) | TGI (SF-295 CNS) | GI50 (TK-10 renal) | TGI (TK-10 renal) | GI50 (LOX IMVI melanoma) | TGI (LOX IMVI melanoma) | GI50 (DU-145 prostate) | TGI (DU-145 prostate) | GI50 (786-0 renal) | TGI (786-0 renal) | GI50 (UACC-257 melanoma) | TGI (UACC-257 melanoma)
1 | C[C@]12CC[C@H]3[C@@H](CCC4=CC(=O)CC[C@@H]43)[C@@H]1CC[C@@H]2OC(=O)CCc1ccccc1 | 17.5 µM | 33.9 µM | 29.7 µM | > 78.2 µM | 15.5 µM | 30.6 µM | 14.5 µM | 33.7 µM | 15.6 µM | 29.1 µM | 15.6 µM | 32.5 µM | 23.9 µM | 50.8 µM | 24.6 µM | 59.5 µM
2 | Cc1ccc(NC(=O)/C=C/c2ccccc2)c(C(N)=O)c1 | 12.5 µM | > 100 µM | 5.38 µM | 42.5 µM | 2.79 µM | > 56.7 µM | 17.1 µM | > 100 µM | 7.87 µM | > 100 µM | 3.81 µM | > 41.9 µM | 6.41 µM | 53 µM | 22.5 µM | > 95.3 µM
3 | COC(=O)Cn1c2c(c3c(O)cccc31)C(=O)c1ccccc1-2 | > 100 µM | > 100 µM | > 100 µM | > 100 µM | > 100 µM | > 100 µM | 45.4 µM | > 100 µM | > 100 µM | > 100 µM | > 100 µM | > 100 µM | > 100 µM | > 100 µM | > 100 µM | > 100 µM
4 | CCCn1c(C)nc2c1C(=O)c1ccccc1C2=O | 31.4 µM | > 100 µM | 50.2 µM | > 100 µM | 13 µM | 41.6 µM | 65.2 µM | > 100 µM | 22.9 µM | > 100 µM | 23.5 µM | > 100 µM | 56.8 µM | > 100 µM | 16.5 µM | 49 µM
5 | COC(=O)C(Cc1ccccc1)NC(=O)NC(=O)NC(=O)CI (stereo not drawn) | 10 µM | 21.8 µM | 17.2 µM | 33.3 µM | 16.4 µM | 31.2 µM | 4.12 µM | 14.7 µM | 1.56 µM | 3.23 µM | 12.1 µM | 25.3 µM | 3.35 µM | 10.9 µM | 13.2 µM | 26.5 µM
6 | C/C(=N\Nc1ccc2ccccc2n1)c1ccccn1 | 0.256 µM | 16.6 µM | 0.133 µM | 2.51 µM | – | 0.636 µM | 0.197 µM | 16.1 µM | 0.0627 µM | 1.42 µM | 0.107 µM | 5.25 µM | 0.1 µM | 1.69 µM | 0.0579 µM | 0.326 µM
7 | O=C1C(=O)c2c(nc3ccc(Cl)cn23)-c2ccccc21 | 0.502 µM | 1.21 µM | 2.06 µM | 3.96 µM | 1.52 µM | 3.13 µM | 1.8 µM | 3.59 µM | 0.216 µM | 0.498 µM | 0.223 µM | 0.452 µM | 0.775 µM | 1.82 µM | 0.284 µM | 0.803 µM
8 | COc1cccc(NC(=O)c2sc3nc4c(cc3c2N)CN(Cc2ccccc2)CC4)c1 | 2.83 µM | 26.2 µM | 9.13 µM | > 100 µM | 3.05 µM | 19.4 µM | 4.82 µM | 21.6 µM | 4.09 µM | 43.5 µM | 5.22 µM | 22.2 µM | 3.61 µM | 20.8 µM | 6.52 µM | > 100 µM
9 | C=CC(=O)Nc1cccc(C)c1Nc1cc(-c2cccnc2Cc2c(C)c(OC)cc(OC)c2C)ncn1 | 6.23 µM | 29.6 µM | 16 µM | 30.6 µM | 6.47 µM | 73.9 µM | 10.8 µM | 99.4 µM | 6.12 µM | 19.8 µM | 16.7 µM | > 100 µM | 10.2 µM | 39.6 µM | 23.7 µM | > 100 µM
10 | C=C1CC[C@@H]2[C@](C)(COC(C)=O)[C@@H](O)CC[C@@]2(C)[C@@H]1COc1ccc2ccc(=O)oc2c1 | 47.8 µM | > 100 µM | > 100 µM | > 100 µM | 25.9 µM | 79.1 µM | > 100 µM | > 100 µM | > 100 µM | > 100 µM | > 100 µM | > 100 µM | 31 µM | > 100 µM | > 100 µM | > 100 µM
11 | O=S(=O)(NCCNC/C=C/c1ccc(Br)cc1)c1cccc2cnccc12 | 3.09 µM and 7.89 µM | 12.7 µM and 21.6 µM | 3.18 µM and 3.91 µM | 10 µM and 14 µM | 6.47 µM and 11.6 µM | 22.9 µM and 25.1 µM | 5.92 µM and 10.3 µM | 19.6 µM and 23 µM | 7.64 µM and 12.1 µM | 25.6 µM and 25.2 µM | 12.4 µM and 14.5 µM | 25.1 µM and 27.6 µM | 4.22 µM and 9.27 µM | 19.8 µM and 21.9 µM | 7.83 µM and 14.3 µM | 20.8 µM and 27.5 µM
12 | N#Cc1c(N/N=C/c2c(Cl)cccc2Cl)nc(N)nc1N1CCOCC1 | 18 µM | > 100 µM | 3.96 µM | 12.8 µM | 4.69 µM | > 100 µM | 20.8 µM | 92 µM | 8.97 µM | > 100 µM | 16 µM | > 100 µM | 5.82 µM | > 100 µM | 6.77 µM | > 100 µM
13 | Clc1cc(Cl)c(OCC#CI)cc1Cl | 7.21 µM | 19.8 µM | 19.6 µM | 33.8 µM | 10.4 µM | 23.7 µM | 3.45 µM | 13.2 µM | 1.33 µM | 2.74 µM | 3.01 µM | 10 µM | 1.69 µM | 3.39 µM | 2.79 µM | 11.9 µM
14 | CN1CCN(Cc2ccc(NC(=O)c3cncc(C#Cc4cnc(N)c5ccncc45)c3)cc2C(F)(F)F)CC1 | 2.22 µM | > 46.6 µM | 1.78 µM | 7.89 µM | 2.16 µM | > 50 µM | 1.56 µM | 7.84 µM | 0.176 µM | 0.707 µM | 0.527 µM | 6.67 µM | 1.73 µM | 7.48 µM | 0.573 µM | 4.68 µM

Source: PubChem BioAssay (NCI)
